Experimental data from US20150159169A1, “Plants Tolerant to HPPD Inhibitor Herbicides” (Bayer CropScience AG, priority 2009, published 2015).
Several values for one entry are separate records, joined by “and”; a condition that tells them apart may be missing. Equal values may be shown once.

Assays:
[1] = tested on: T0 tobacco plants expressing the FMP27 HPPD (FMP27t); test: Greenhouse response of T0 tobacco plants to tembotrione; assay type: in vivo, Nicotiana tabacum; settings: 100 g AI/ha, two weeks after treatment
Protocol: As an example, rooted plants containing the T-DNA PromCaMV35S-OTP-HIS6-FMP27t-TerCaMV35S, were transferred to the greenhouse under standard growth conditions. Following a period of acclimation of two weeks, the T0 plants were treated with a mixture containing 100 g tembotrione/ha prepared from a WP20 (wettable powder 20%) formulation supplemented with ammonium sulfate and methyl ester raps oil. Two weeks after the treatment, the symptoms due to the application of the herbicides were evaluated. The plants were classified in four categories. The treated plants evaluated as “0” are looking like the untreated tobacco plants. The plants evaluated as “1” display temporarily light bleaching phenotype due to the application of the herbicides. The plants evaluated as “2” display permanent light to strong bleaching symptoms. Finally the plants evaluated as “3” are looking like wild type tobacco plants submitted to the same treatment.

[2] = tested on: tobacco plants containing FMP27t-h, PAT and 2mEPSPS (pFCO116); test: Glasshouse response of three-tolerance-gene tobacco to herbicides, injury classes; assay type: in vivo, Nicotiana tobacum; settings: 100 g AI/ha, 9 DAT
Protocol: A binary vector for tobacco transformation is, for example, constructed with the CaMV35 promoter driving the expression of the gene FMP27t-h (SEQ ID No. 15), with a codon usage optimized for the expression in dicotyledoneous plants and at its 5′extremity was added a sequence coding for an OTP, and further upstream a sequence TEV (Tobacco etch virus) to improve the stability of the mRNA in plants followed by the CaMV35S terminator. The nucleotide sequence of the gene FMP27t-h is given in SEQ ID No. 15. Additionally, the transformation vector also contains a PAT gene cassette in which the gene is driven by a CaVM35S promoter and followed by a CaMV35S terminator for glufosinate based selection during the transformation process and a 2mEPSPS gene cassette in which the gene is driven by an histone promoter from Arabidopsis to confer tolerance to the herbicide glyphosate to the transformed plants (see FIG. 3 H). The binary vector was called pFCO116. The above vector was used to transform leaf disc obtained from Nicotiana tobacum plants, according to Example 3.
Transgenic tobacco plants were transferred to the greenhouse and treated with glyphosate at a rate of 1121 g AI/ha. Seeds were produced from such tolerant tobacco plants and harvested. These seeds were put on soil to germinate in the glasshouse. Three to four weeks later, 50 plantlets per event were transferred to single pots. Two weeks later, plants of a size 4-6 cm were sprayed either with
[…] […] Non-transgenic tobacco plants were completely killed by treatment using one or more of the above herbicides.

[3] = tested on: tobacco calli containing SEQ ID No. 7 (Kordia algicida HPPD); test: Rooting of calli on tembotrione media; assay type: cell-based, Nicotiana tabacum; settings: 6 to 12 weeks, calli with SEQ ID No. 7
Protocol: (§1) The leaf disks were co-cultivated for 2 days with Agrobacterium tumefaciens cells containing either the binary vector FMP27ebv or AtHPPDbv. Then the leaf disks were transferred to a media allowing the regeneration of shoots for 6 weeks on MS (Musharige and Skoog, (1962), Physiol Plant 15(3): 473-497) media supplemented with BAP (1 mg/mL; Benzylaminopurine), carbenicillin (250 mg/mL), cefotaxine (250 mg/mL), kanamycin (75 mg/mL) and tembotrione (10^−6 M)
(§2) Regenerated calli were transferred on media to induce the development of roots for 6 to 12 weeks: MS (1/2), supplemented with carbenicillin (250 mg/mL), cefotaxine (250 mg/mL), kanamycin (75 mg/mL), and tembotrione (10^−6 M).
(§3) Regenerated shoot calli from a cell transformed with a nucleic acid sequence encoding an HPPD comprising SEQ ID No. 11 (Arabidopsis thaliana) or SEQ ID No. 7 (Kordia algicida) were transferred to a media inducing root growth which media was further supplemented with the HPPD inhibitor tembotrione for 6 to 12 weeks.

[4] = tested on: tobacco calli containing SEQ ID No. 11 (Arabidopsis thaliana HPPD); test: Rooting of calli on tembotrione media; assay type: cell-based, Nicotiana tabacum; settings: 6 to 12 weeks, calli with SEQ ID No. 11
Protocol: as §1, §2, §3

[5] = tested on: T1 tobacco plants containing Arabidopsis HPPD; test: Glasshouse spray trial, % injury; assay type: in vivo, Nicotiana tabacum; settings: 7DAT, 100 gAI/ha spray
Protocol: (§4) T0 Tobacco plants containing either the gene from Arabidopsis coding for HPPD or the gene FMP27e from Kordia algicida coding for FMP27 HPPD, mentioned above (Example 3), were transferred to the glasshouse (28/20° C.), to develop further and produce seeds. Those seeds were harvested and put on soil (ED73 mixed with sand and osmocote Pro) to germinate in the glasshouse (28/20° C.). Three to four weeks later, plantlets were transferred to single pots containing the soil mentioned above. Two weeks later, plants of a size 4-6 cm diameter were sprayed with either • tembotrione at 100 gAI/ha prepared from a WP20 (wettable powder 20%) formulation supplemented with ammonium sulfate and methyl ester raps oil, or • isoxaflutole at 100 gAI/ha prepared from a WP20 formulation supplemented with ammonium sulfate and methyl ester raps oil, or • bicyclopyrone at 100 gAI/ha prepared from a WP20 formulation supplemented with ammonium sulfate and methyl ester raps oil, or • “blind formulation” made from a WP20 formulation without active ingredient (AI) supplemented with ammonium sulfate and methyl ester raps oil, and were then transferred to a growth chamber with adequate light conditions (20000 Lux).
(§5) Table 6: Wild type tobacco plants (A) and T1 populations of tobacco events containing alternatively, the expression cassettes described above having the promoter CaMV 35S, the sequence coding for OTP and the sequence coding for Arabidopsis HPPD (B) or the promoter CaMV35S, the sequence encoding OTP, and the sequence FMP27e coding for the HPPD FMP27 (C). Assessments of herbicidal damage at 7 days after application (DAT) per spray with 100 g AI/ha of tembotrione or isoxaflutole supplemented with ammonium sulfate and methyl ester raps oil. […] Plants belonging to categories (B) and (C) have not been selected for the presence of the respective transgene prior to the herbicide application.

[6] = tested on: T1 tobacco plants containing FMP27e (Kordia algicida HPPD FMP27); test: Glasshouse spray trial, % injury; assay type: in vivo, Nicotiana tabacum; settings: 7DAT, 100 gAI/ha spray
Protocol: as §4, §5

wild type tobacco plants = test: Glasshouse spray trial, % injury; assay type: in vivo, Nicotiana tabacum; settings: 7DAT, 100 gAI/ha spray; individual WT plants; 100% = bleaching as wild type
Protocol: as §4, §5

CS(=O)(=O)c1ccc(C(=O)C2C(=O)CCCC2=O)c(Cl)c1COCC(F)(F)F [Tembotrione, 2-[2-chloro-4-(methylsulfonyl)-3-[(2,2,2,-tri-fluoroethoxy)methyl]benzoyl]-1,3-cyclo-hexanedione]
number of plants in category 0 (looking like the untreated tobacco plants) [1]: 11 | number of plants in category 1 (temporarily light bleaching) [1]: 4 | number of plants in category 2 (permanent light to strong bleaching) [1]: 10 | number of plants in category 3 (like wild type plants submitted to the same treatment) [1]: 4 | Class I, number of plants (no injuries) ([2]; line 639): 7 | Class II, number of plants (injury: 10-40%) ([2]; line 639): 3 | Class III, number of plants (injury: 41-100%) ([2]; line 639): 0 | Class I, number of plants (no injuries) ([2]; line 714): 5 | Class II, number of plants (injury: 10-40%) ([2]; line 714): 1 | Class III, number of plants (injury: 41-100%) ([2]; line 714): 4 | Class I, number of plants (no injuries) ([2]; line 717): 4 | Class II, number of plants (injury: 10-40%) ([2]; line 717): 2 | Class III, number of plants (injury: 41-100%) ([2]; line 717): 4 | % Elongation & rooting on 10^−6M tembotrione [3]: 62% | % Elongation & rooting on 10^−6M tembotrione [4]: 0% | % injury ([5]; line 252, individual T1 plants): 30% and 40% (3×) and 50% and 60% (2×) and 70% (2×) and 75% (3×) and 80% | % injury ([5]; line 258, individual T1 plants): 100% (5×) and 30% | % injury ([5]; line 327, individual T1 plants): 10% and 20% (2×) and 40% and 50% (2×) and 70% (5×) and 80% (4×) | % injury ([6]; line 121, individual T1 plants): 0% (4×) and 5% (3×) and 10% (6×) | % injury ([6]; line 129, individual T1 plants): 0% (2×) and 5% (2×) and 10% (2×) and 15% (2×) and 30% (2×) | % injury ([6]; line 218, individual T1 plants): 0% (11×) and 5% (4×) | % injury (wild type tobacco plants): 100%
